This is an account of results in article PMC3551932, “STK295900, a Dual Inhibitor of Topoisomerase 1 and 2, Induces G2 Arrest in the Absence of DNA Damage” (PLoS ONE, 2013).

Assay [1] relates to HeLa cells. As to the kind of experiment: Antagonistic effect on Top poison-induced DNA damage (γ-H2A.X immunoblot). It is filed as cell-based, human. On the procedure: Cells were lysed with cold RIPA buffer (50 mM Tris-HCl pH 8.0, 150 mM NaCl, 1% NP-40, 0.5% sodium deoxycholate, 0.1% SDS) containing freshly added protease inhibitor, phosphatase inhibitor (SIGMA), 1 mM DTT, and 1 mM Na3VO4 on ice for 1 h. Whole cell lysates were centrifuged at 15,000 rpm for 20 min and then the supernatant was transferred into a new tube. An appropriate amount of cell lysate was subjected to SDS-PAGE. Then the resolved proteins were transferred onto a PVDF membrane (Bio-Rad) for immunoblot analyses with specific antibodies. The proteins were detected using chemiluminescence solution (Thermo Scientific, Rockford, IL).
Supercoiled DNA relaxation assay for (A) topoisomerase 1 (Top 1) and (B) topoisomerase 2 (Top 2). Supercoiled pBR322 plasmid DNA was incubated at 37°C for 30 min with Top 1 enzyme (A) or Top 2α (B) in the presence of various concentrations of indicated compounds. DNA samples were separated by electrophoresis on a 1% agarose gel, stained with ethidium bromide, and visualized by UV light. (−), supercoiled DNA alone; oc, open circular; sc, supercoiled. […] HeLa cells were pretreated with 10 µM of STK295900 for 30 min and then incubated with the indicated concentrations of camptothecin for 1 h. Treated cells were lysed and subjected to immunoblot analyses with antibody against γ-H2A.X. β-actin was used as a loading control. […] HeLa cells were pretreated with STK295900 at 10, 20, 30, or 50 µM or ICRF-193 at 10 µM for 30 min. […] Treated cells were then lysed and subjected to immunoblot analyses with antibody against γ-H2A.X. β-actin was used as a loading control.
The lysates were subjected to immunoblot analyses with γ-H2A.X antibody.
(A western blot detects proteins with antibodies after separation by electrophoresis.)

Assay [2] relates to HeLa cells. Kind of assay: Flow cytometric analysis for cell cycle distribution. The conditions noted are these: 24 h, control around 25%. In kind it is cell-based, human. On the procedure:
For cell cycle analysis, HeLa cells were harvested following compound treatment for 24 h and stained with propidium iodide (PI) according to the instruction of Cycle Test Plus DNA Reagent kit from BD Biosciences (San Jose, CA). Flow cytometric analysis was performed using a FACSCalibur instrument (Becton Dickinson, San Jose, CA).
Figure 2 STK295900 induces G2 phase arrest in HeLa cells. (A) Flow cytometric analysis for cell cycle distribution. HeLa cells were treated with the indicated concentrations of STK295900 for 24 h. Treated cells were then stained with propidium iodide (PI) and processed for cell cycle analysis. The bar graph represents the mean percentage of each cell cycle phase ± SD from three independent experiments. * = p<0.05 versus the respective G1, S, or G2/M phase of DMSO-treated cells. (B) Mitotic index of STK295900. HeLa cells were treated with the indicated concentrations of STK295900 for 24 h. Cells were then stained with Hoechst 33342 and mitotic cells were counted. […] (C) Cell cycle related proteins expression. […] Treated cells were lysed and subjected to immunoblot analyses with antibodies against cyclin A, cyclin B1, phospho-Histone H3 (S10), and Histone H3. β-actin was used as a loading control.

As to `Nc1ccc(-c2nc3ccc(-c4ccc5nc(-c6ccc(N)cc6)[nH]c5c4)cc3[nH]2)cc1` [STK295900, 4,4′-(3H,3′H-5,5′-bibenzimidazole-2,2′-diyl)dianiline], the “effect of pretreatment on etoposide-induced γ-H2A.X” value in the assay on HeLa cells [1] (pretreated up to 50 µM for 30 min, then 10 µM etoposide 1 h) was “could not prevent”. Besides, the “effect of pretreatment on camptothecin-induced γ-H2A.X” value in the assay on HeLa cells [1] (pretreated with 10 µM for 30 min, then camptothecin 1 h) was “dramatically reduced”. The G2/M population entry in the assay on HeLa cells [2] (0.5 µM) was “about 35%”; in the assay on HeLa cells [2] (1 µM) it was roughly 55%; in the assay on HeLa cells [2] (5 µM) it was roughly 65%.
